# Reference: ChEMBL document CHEMBL2151037, “Synthesis of novel 1H-1,2,3-triazole tethered C-5 substituted uracil-isatin conjugates and their cytotoxic evaluation” (Eur J Med Chem, 2012)
# Legend:
# Assay type in all cases: functional, cell-based
# DU-145 = test: Antiproliferative activity against human DU145 cells after 24 hrs by MTT assay; conditions: DU-145, 24 h
# MCF7 = test: Antiproliferative activity against human MCF7 cells after 24 hrs by MTT assay; conditions: MCF7, 24 h
# HeLa = test: Antiproliferative activity against human HeLa cells after 24 hrs by MTT assay
Structure (SMILES),IC50 (DU-145),IC50 (MCF7),IC50 (HeLa)
O=C1C(=O)N(CCn2cc(Cn3ccc(=O)n(Cc4cn(CCN5C(=O)C(=O)c6cc(Cl)ccc65)nn4)c3=O)nn2)c2ccc(Cl)cc21,42.8 µM,> 100 µM,> 100 µM
Cc1ccc2c(c1)C(=O)C(=O)N2CCn1cc(Cn2ccc(=O)n(Cc3cn(CCN4C(=O)C(=O)c5cc(C)ccc54)nn3)c2=O)nn1,38.2 µM,51.1 µM,52.6 µM
O=C1C(=O)N(CCn2cc(Cn3cc(Cl)c(=O)n(Cc4cn(CCN5C(=O)C(=O)c6cc(Cl)ccc65)nn4)c3=O)nn2)c2ccc(Cl)cc21,> 100 µM,38.2 µM,65.7 µM
O=C1C(=O)N(CCCn2cc(Cn3ccc(=O)n(Cc4cn(CCCN5C(=O)C(=O)c6ccccc65)nn4)c3=O)nn2)c2ccccc21,> 100 µM,56.4 µM,50.7 µM
Cc1ccc2c(c1)C(=O)C(=O)N2CCCn1cc(Cn2ccc(=O)n(Cc3cn(CCCN4C(=O)C(=O)c5cc(C)ccc54)nn3)c2=O)nn1,63.7 µM,> 100 µM,> 100 µM

# The next lines start with the values.
IC50 (DU-145),IC50 (MCF7),IC50 (HeLa),Structure (SMILES)
> 100 µM,63.3 µM,> 100 µM,O=C1C(=O)N(CCn2cc(Cn3cc(F)c(=O)n(Cc4cn(CCN5C(=O)C(=O)c6cc(Cl)ccc65)nn4)c3=O)nn2)c2ccc(Cl)cc21
> 100 µM,43.1 µM,> 100 µM,O=C1C(=O)N(CCn2cc(Cn3ccc(=O)n(Cc4cn(CCN5C(=O)C(=O)c6cc(F)ccc65)nn4)c3=O)nn2)c2ccc(F)cc21
18.2 µM,> 100 µM,> 100 µM,O=C1C(=O)N(CCn2cc(Cn3cc(Cl)c(=O)n(Cc4cn(CCN5C(=O)C(=O)c6ccccc65)nn4)c3=O)nn2)c2ccccc21
66.2 µM,98.7 µM,52.4 µM,O=C1C(=O)N(CCCn2cc(Cn3ccc(=O)n(Cc4cn(CCCN5C(=O)C(=O)c6cc(F)ccc65)nn4)c3=O)nn2)c2ccc(F)cc21
28.6 µM,> 100 µM,> 100 µM,O=C1C(=O)N(CCn2cc(Cn3cc(F)c(=O)n(Cc4cn(CCN5C(=O)C(=O)c6ccccc65)nn4)c3=O)nn2)c2ccccc21
13.9 µM,> 100 µM,33.1 µM,O=C1C(=O)N(CCCn2cc(Cn3ccc(=O)n(Cc4cn(CCCN5C(=O)C(=O)c6cc(Cl)ccc65)nn4)c3=O)nn2)c2ccc(Cl)cc21
57.8 µM,45.5 µM,> 100 µM,O=C1C(=O)N(CCn2cc(Cn3ccc(=O)n(Cc4cn(CCN5C(=O)C(=O)c6ccccc65)nn4)c3=O)nn2)c2ccccc21
